Test results reported in EP1144369B1 (Wyeth Holdings Corporation, priority 1999, dated 2000).

How the values were obtained:
MMP-9 = MMP-9 (Homo sapiens, UniProt P14780); test: MMP-9 inhibition (thiopeptide or fluorescent peptide substrate); assay type: biochemical
Method: (§1) The enzyme activity is measured by the rate of the color increase. The thiopeptide substrate is made up fresh as a 20 mM stock in 100% DMSO and the DTNB is dissolved in 100% DMSO as a 100 mM stock and stored in the dark at room temperature. Both the substrate and DTNB are diluted together to 1 mM with substrate buffer (50 mM HEPES pH 7.5, 5 mM CaCl2) before use. The stock of enzyme is diluted with buffer (50 mM HEPES, pH 7.5, 5 mM CaCl2, 0.02% Brij) to the desired final concentration.
(§2) Alternatively, a fluorescent peptide substrate is used. In this test procedure, the peptide substrate contains a fluorescent group and a quenching group. Upon cleavage of the substrate by an MMP, the fluorescence that is generated is quantitated on the fluorescence plate reader. The assay is run in HCBC assay buffer (50mM HEPES, pH 7.0, 5 mM Ca^+2, 0.02% Brij, 0.5% Cysteine), with human recombinant MMP-1, MMP-9, or MMP-13. The substrate is dissolved in methanol and stored frozen in 1 mM aliquots. For the assay, substrate and enzymes are diluted in HCBC buffer to the desired concentrations. Compounds are added to the 96 well plate containing enzyme and the reaction is started by the addition of substrate.
(§3) For either the thiopeptide or fluorescent peptide test procedures, the slope of the line is calculated and represents the reaction rate. The linearity of the reaction rate is confirmed (r^2 >0.85). The mean (x±sem) of the control rate is calculated and compared for statistical significance (p<0.05) with drug-treated rates using Dunnett's multiple comparison test.

MMP-13 = MMP-13 (Homo sapiens, UniProt P45452); test: MMP-13 inhibition (thiopeptide or fluorescent peptide substrate); assay type: biochemical
Method: as §1, §2, §3

MMP-1 = biological target: T1, MMP-1 (Homo sapiens, UniProt P03956); test: MMP-1 inhibition (thiopeptide or fluorescent peptide substrate); assay type: biochemical; settings: for IC50: plain number = IC50; for inhibition at 10 µM: read-out: IC50 (nM) or % Inhibition (µM) MMP-1
T1 sequence (P03956 100-469): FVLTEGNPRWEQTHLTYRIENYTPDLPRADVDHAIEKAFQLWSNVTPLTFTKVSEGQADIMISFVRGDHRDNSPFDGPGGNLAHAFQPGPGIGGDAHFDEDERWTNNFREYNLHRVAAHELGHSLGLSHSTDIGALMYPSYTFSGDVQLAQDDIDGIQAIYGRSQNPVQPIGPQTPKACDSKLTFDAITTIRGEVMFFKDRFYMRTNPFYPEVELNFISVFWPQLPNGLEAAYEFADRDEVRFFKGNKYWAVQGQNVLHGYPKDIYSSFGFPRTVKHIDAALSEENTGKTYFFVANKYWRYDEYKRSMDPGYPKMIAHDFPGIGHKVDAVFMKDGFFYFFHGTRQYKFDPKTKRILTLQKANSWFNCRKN
Method: as §1, §2, §3

THP-1 cells = test: THP-1 soluble protein assay (LPS-stimulated human monocytic THP-1 cells); assay type: cell-based; settings: Homo sapiens, LPS-stimulated THP-1 cells, read-out: % Inhib. @ 3µM THP
Text: Mitogenic stimulation of THP-1 cells cause differentiation into macrophage like cells with concomitant secretion of tumor necrosis factor (TNF-a) and TNF receptor (TNF-R p75/80 and TNF-R p55/60) and Interleukin-8 (IL-8), among other proteins. In addition, non-stimulated THP-1 cells shed both the p75/80 and the p55/60 receptors over time. The release of membrane bound TNF-α and possibly TNF-R p75/80 and TNF-R p55/60, but not IL-8, is mediated by an enzyme called TNF-a converting enzyme or TACE.
THP-1 cells (from ATCC) are a human monocytic cell line which were obtained from the peripheral blood of a person with acute monocytic leukemia. They can be grown in culture and differentiated into macrophage like cells by stimulation with mitogens.
Each vial of cells are cultured for about two weeks prior to being used for an assay and then are used for only 4 to 6 weeks to screen compounds.
Cell exposure to DMSO was limited to 0.1 % final concentration. […] Compounds can be evaluated for their effect on basal (non-stimulated) shedding of the receptors by replacing the LPS with […] of THP-1 media. Plates are placed into an incubator set at 5% CO2 and at 37°C. After 4 hours of incubation, […] of tissue culture supernatant (TCS) is removed for use in an TNF-a ELISA. Following 24 hours of incubation, […] of TCS is removed and used for analysis in TNF-R p75/80, TNF-R p55/60 and IL-8 ELISAs.
In addition, at the 24 hours timepoint, and the cells for each treatment group are collected by resuspension in 500 µl/well of THP-1 media and transferred into a FACS tube. […] The samples are run on a Becton Dickinson FaxCaliber FLOW cytometry machine and the amount of dye taken up by each cell is measured in the high red wavelength (FL3). Only cells with compromised membranes (dead or dying) can take up PI. The percent of live cells is calculated by the number of cells not stained with PI, divided by the total number of cells in the sample. The viability values calculated for the drug treated groups were compared to the viability value calculated for the vehicle treated mitogen stimulated group ("vehicle positive control") to determine the "percent change from control". This "percent change from control" value is an indicator of drug toxicity.
The quantity of soluble TNF-a, TNF-R p75/80 and TNF-R p55/60 and IL-8 in the TCS of the THP-1 cell cultures are obtained with commercially available ELISAs from R&D Systems, by extrapolation from a standard curve generated with kit standards. The number of cells that either take up or exclude PI are measured by the FLOW cytometry machine and visualized by histograms using commercially available Cytologic software for each treatment group including all controls.
Biological variability in the magnitude of the response of THP-1 cell cultures requires that experiments be compared on the basis of percent change from "vehicle positive control" for each drug concentration. Percent change in each soluble protein evaluated from the "vehicle positive control" was calculated for each compound concentration with the following formula: % Change =(pg/ml(compound) - pg/ml (veh pos control))/(pg/ml (veh pos control) - pg/ml(veh neg control))x 100 [formula]
For the soluble protein (TNF-a, p75/80, p55/60, IL-8) studies under stimulated conditions, the mean pg/ml of duplicate wells were determined and the results expressed as percent change from "vehicle positive control". For the soluble protein (p75/80 and p55/60 receptors) studies under non-stimulated conditions, the mean pg/ml of duplicate wells were determined and the results expressed as percent change from "vehicle positive control" utilizing the following formula: % Change =(pg/ml (compound neg control) - pg/ml (veh neg control)/(pg/ml (veh neg control))X 100 [formula]
IC50 values for each compound are calculated by non-linear regression analysis using customized software utilizing the JUMP statistical package.

[1] = biological target: TNF-α converting enzyme (TACE) (Homo sapiens, UniProt P78536); test: TACE inhibition (fluorescent peptidyl substrate); assay type: biochemical; settings: read-out: IC50 (nM) or % Inhibition (µM) TACE
Method: Using 96-well black microtiter plates, each well receives a solution composed of 10 µL TACE (final concentration 1µg/mL), 70µL Tris buffer, pH 7.4 containing 10% glycerol (final concentration 10 mM), and 10 µL of test compound solution in DMSO (final concentration 1µM, DMSO concentration <1%) and incubated for 10 minutes at room temperature. The reaction is initiated by addition of a fluorescent peptidyl substrate (final concentration 100 µM) to each well and then shaking on a shaker for 5 sec.
The reaction is read (excitation 340 nm, emission 420 nm) for 10 min. and the increase in fluorescence over time is plotted as a linear line. The slope of the line is calculated and represents the reaction rate.
The linearity of the reaction rate is confirmed (r^2 >0.85). The mean (x±sem) of the control rate is calculated and compared for statistical significance (p<0.05) with drug-treated rates using Dunnett's multiple comparison test.

Sequence of MMP-9 (P14780 94-707): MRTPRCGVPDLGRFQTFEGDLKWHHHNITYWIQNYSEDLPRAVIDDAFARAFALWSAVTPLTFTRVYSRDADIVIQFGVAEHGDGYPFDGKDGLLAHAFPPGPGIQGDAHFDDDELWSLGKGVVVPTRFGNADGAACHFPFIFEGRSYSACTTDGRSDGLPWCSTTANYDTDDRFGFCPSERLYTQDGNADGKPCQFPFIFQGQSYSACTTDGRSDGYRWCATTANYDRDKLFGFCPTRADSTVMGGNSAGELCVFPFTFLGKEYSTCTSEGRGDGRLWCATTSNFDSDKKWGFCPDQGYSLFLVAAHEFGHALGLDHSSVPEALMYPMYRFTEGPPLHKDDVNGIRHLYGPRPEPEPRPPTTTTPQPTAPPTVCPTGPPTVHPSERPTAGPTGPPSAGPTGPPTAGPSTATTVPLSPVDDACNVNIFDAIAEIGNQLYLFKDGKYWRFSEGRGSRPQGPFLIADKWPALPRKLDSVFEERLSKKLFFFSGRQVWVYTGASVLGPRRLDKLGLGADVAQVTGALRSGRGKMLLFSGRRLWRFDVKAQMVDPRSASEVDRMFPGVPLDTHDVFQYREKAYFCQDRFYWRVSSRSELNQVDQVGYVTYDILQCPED
Sequence of TNF-α converting enzyme (TACE) (P78536 215-824, species assumed): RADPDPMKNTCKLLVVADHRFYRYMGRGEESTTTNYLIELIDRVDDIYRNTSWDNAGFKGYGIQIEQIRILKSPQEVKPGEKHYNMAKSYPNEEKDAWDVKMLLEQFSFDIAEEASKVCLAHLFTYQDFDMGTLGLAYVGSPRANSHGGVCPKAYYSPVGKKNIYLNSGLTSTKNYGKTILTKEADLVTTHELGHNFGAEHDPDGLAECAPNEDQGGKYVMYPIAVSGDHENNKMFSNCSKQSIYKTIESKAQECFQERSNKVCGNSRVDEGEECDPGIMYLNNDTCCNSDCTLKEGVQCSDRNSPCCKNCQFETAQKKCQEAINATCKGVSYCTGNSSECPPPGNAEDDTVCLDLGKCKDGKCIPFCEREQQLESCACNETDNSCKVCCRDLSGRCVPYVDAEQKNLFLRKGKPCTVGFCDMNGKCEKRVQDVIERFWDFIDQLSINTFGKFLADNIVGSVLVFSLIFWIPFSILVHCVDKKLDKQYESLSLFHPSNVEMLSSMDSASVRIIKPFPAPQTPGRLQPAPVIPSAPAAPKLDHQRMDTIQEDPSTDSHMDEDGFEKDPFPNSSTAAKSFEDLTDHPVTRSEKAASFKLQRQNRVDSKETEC

SMILES	IC50 (MMP-9) [nM]	IC50 (MMP-13) [nM]	IC50 (MMP-1) [nM]	IC50 [1] [nM]	inhibition at 10 µM (MMP-1) [%]	inhibition at 3 µM (THP-1 cells) [%]
CCCC#CCOc1ccc(S(=O)(=O)N(C)c2c(C)cc(Br)cc2C(=O)NO)cc1 [Example 57, 5-Bromo-2-[(4-hex-2-ynyloxy-benzenesulfonyl)-methyl-amino]-N-hydroxy-3-methyl-benzamide]	232	358	2360	47	–	11
COCC#CCOc1ccc(S(=O)(=O)N(C)c2c(C)cc(Br)cc2C(=O)NO)cc1 [Example 58, 5-Bromo-N-hydroxy-2-{[4-(4-methoxy-but-2-ynyloxy)-benzenesulfonyl]-methyl-amino}-3-methyl-benzamide]	387	233	7800	11	–	46
COc1cccc(C#CCOc2ccc(S(=O)(=O)N(C)c3c(C)cc(Br)cc3C(=O)NO)cc2)c1 [Example 60, 5-Bromo-N-hydroxy-2-({4-[3-(3-methoxy-phenyl)-prop-2-ynyloxy]-benzenesulfonyl}-methyl-amino)-3-methyl-benzamide]	671	935	1030	91	–	1
COc1ccccc1C#CCOc1ccc(S(=O)(=O)N(C)c2c(C)cc(Br)cc2C(=O)NO)cc1 [Example 61, 5-Bromo-N-hydroxy-2-({4-[3-(2-methoxy-phenyl)-prop-2-ynyloxy]-benzenesulfonyl}-methyl-amino)-3-methyl-benzamide]	1510	1200	–	193	52	0
COc1ccc(C#CCOc2ccc(S(=O)(=O)N(C)c3c(C)cc(Br)cc3C(=O)NO)cc2)cc1 [Example 62, 5-Bromo-N-hydroxy-2-({4-[3-(4-methoxy-phenyl)-prop-2-ynyloxy]-benzenesulfonyl}-methyl-amino)-3-methyl-benzamide]	901	588	3600	104	–	15
CC#CCOc1ccc(S(=O)(=O)N(C)c2c(C)cc(I)cc2C(=O)NO)cc1 [Example 63, 2-[(4-But-2-ynyloxy-benzenesulfonyl)-methyl-amino]-N-hydroxy-5-iodo-3-methyl-benzamide]	840	275	901	16	–	87
CC#CCOc1ccc(S(=O)(=O)N(Cc2ccccc2)c2c(C)cc(C)cc2C(=O)NO)cc1 [Example 64, 2-[Benzyl-(4-but-2-ynyloxy-benzenesulfonyl)-amino]-N-hydroxy-3,5-dimethyl-benzamide]	830	312	1190	105	–	48

Now from value to compound, other results behind:

IC50 (MMP-9) [nM]	IC50 (MMP-13) [nM]	IC50 (MMP-1) [nM]	IC50 [1] [nM]	inhibition at 10 µM (MMP-1) [%]	SMILES	inhibition at 3 µM (THP-1 cells) [%]
602	537	3350	148	–	Cc1cc(Br)cc(C(=O)NO)c1N(C)S(=O)(=O)c1ccc(OCC#CCN2CCCC2)cc1 [Example 65, 5-Bromo-N-hydroxy-3-methyl-2-{methyl-[4-(4-pyrrolidin-1-yl-but-2-ynyloxy)-benzenesulfonyl]-amino}-benzamide]	12
2830	2380	–	346	21	CCN(CC)CC#CCOc1ccc(S(=O)(=O)N(C)c2c(C)cc(Br)cc2C(=O)NO)cc1 [Example 66, 5-Bromo-2-{[4-(4-diethylamino-but-2-ynyloxy)-benzenesulfonyl]-methyl-amino}-N-hydroxy-3-methyl-benzamide]	5
396	177	–	30	25	Cc1cc(Br)cc(C(=O)NO)c1N(C)S(=O)(=O)c1ccc(OCC#CCOC2CCCCO2)cc1 (centres unmarked) [Example 69, 5-Bromo-N-hydroxy-3-methyl-2-(methyl-{4-[4-(tetrahydro-pyran-2-yloxy)-but-2-ynyloxy]-benzenesulfonyl}-amino)-benzamide]	19
